Results taken from patent US7410970B2, “Substituted 1,4,-di-piperidin-4-yl-piperazine derivatives and their use as neurokinin antagonists” (Janssen Pharmaceutica, N.V., priority 2002, dated 2008).

Tests used:
h-NK3 receptor = target: T1, h-NK3 receptor (Homo sapiens, UniProt P29371); assay: Binding experiment for h-NK3 receptor: displacement of [3H]-SR-142801, CHO cells; details: cloned human h-NK3 receptors expressed in CHO cells, read-out: h-NK3 pIC50 (converted)
T1 construct: expressed in transfected cells; host or cells: CHO cells
T1 sequence (P29371 1-465): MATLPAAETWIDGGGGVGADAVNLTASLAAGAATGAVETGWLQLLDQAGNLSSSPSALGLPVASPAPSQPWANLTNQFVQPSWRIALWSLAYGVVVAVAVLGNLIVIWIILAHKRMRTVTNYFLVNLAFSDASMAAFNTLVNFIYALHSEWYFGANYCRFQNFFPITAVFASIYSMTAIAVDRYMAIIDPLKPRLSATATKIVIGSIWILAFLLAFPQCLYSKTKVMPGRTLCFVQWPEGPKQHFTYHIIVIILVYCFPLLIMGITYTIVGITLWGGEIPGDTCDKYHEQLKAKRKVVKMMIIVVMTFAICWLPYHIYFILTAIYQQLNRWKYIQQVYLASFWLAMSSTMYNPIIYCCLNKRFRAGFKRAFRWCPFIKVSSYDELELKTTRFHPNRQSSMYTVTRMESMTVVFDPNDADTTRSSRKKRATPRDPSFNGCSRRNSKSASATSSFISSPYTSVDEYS
Procedure: (§1) The compounds according to the invention were investigated for interaction with various neurotransmitter receptors, ion channels and transporter binding sites using the radioligand binding technique. Membranes from tissue homogenates or from cells, expressing the receptor or transporter of interests, were incubated with a radioactively labelled substance ([^3H]- or [^125I] ligand) to label a particular receptor. […] Following incubation, labelled membranes were harvested and rinsed with excessive cold buffer to remove non-bound radioactivity by rapid filtration under suction. Membrane bound radioactivity was counted in a scintillation counter and results were expressed in counts per minute (cpm). The compounds were dissolved in DMSO and tested at 10 concentrations ranging from 10^−10 to 10^−5 M. The ability of the compounds according to the invention to displace [^3H]-Substance P from cloned human h-NK1 receptors expressed in CHO cells, to displace [^3H]-SR-48968 from cloned human h-NK2 receptors expressed in Sf9 cells, and to displace [^3H]-SR-142801 from cloned human h-NK3 receptors expressed in CHO cells was evaluated.

h-NK2 receptor = target: T2, h-NK2 receptor (Homo sapiens, UniProt P21452); assay: Binding experiment for h-NK2 receptor: displacement of [3H]-SR-48968, Sf9 cells; details: cloned human h-NK2 receptors expressed in Sf9 cells, read-out: h-NK2 pIC50 (converted)
T2 construct: expressed in transfected cells; host or cells: Sf9 cells
T2 sequence (P21452 1-398): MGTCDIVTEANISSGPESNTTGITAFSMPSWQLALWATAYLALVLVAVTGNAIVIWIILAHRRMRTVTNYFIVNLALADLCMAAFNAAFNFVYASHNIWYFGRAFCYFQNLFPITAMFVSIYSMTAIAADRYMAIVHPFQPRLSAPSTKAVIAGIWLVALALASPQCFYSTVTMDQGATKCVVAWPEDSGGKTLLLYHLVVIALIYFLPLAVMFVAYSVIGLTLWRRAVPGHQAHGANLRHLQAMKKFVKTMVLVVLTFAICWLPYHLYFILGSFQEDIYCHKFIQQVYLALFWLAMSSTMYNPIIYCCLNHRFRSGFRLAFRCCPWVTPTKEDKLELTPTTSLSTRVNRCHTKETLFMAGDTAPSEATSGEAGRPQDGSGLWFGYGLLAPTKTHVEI
Procedure: as §1

h-NK1 receptor = target: T3, h-NK1 receptor (Homo sapiens, UniProt P25103); assay: Binding experiment for h-NK1 receptor: displacement of [3H]-Substance P, CHO cells; details: cloned human h-NK1 receptors expressed in CHO cells, read-out: h-NK1 pIC50 (converted)
T3 construct: expressed in transfected cells; host or cells: CHO cells
Procedure: as §1

T3 sequence (P25103 whole entry): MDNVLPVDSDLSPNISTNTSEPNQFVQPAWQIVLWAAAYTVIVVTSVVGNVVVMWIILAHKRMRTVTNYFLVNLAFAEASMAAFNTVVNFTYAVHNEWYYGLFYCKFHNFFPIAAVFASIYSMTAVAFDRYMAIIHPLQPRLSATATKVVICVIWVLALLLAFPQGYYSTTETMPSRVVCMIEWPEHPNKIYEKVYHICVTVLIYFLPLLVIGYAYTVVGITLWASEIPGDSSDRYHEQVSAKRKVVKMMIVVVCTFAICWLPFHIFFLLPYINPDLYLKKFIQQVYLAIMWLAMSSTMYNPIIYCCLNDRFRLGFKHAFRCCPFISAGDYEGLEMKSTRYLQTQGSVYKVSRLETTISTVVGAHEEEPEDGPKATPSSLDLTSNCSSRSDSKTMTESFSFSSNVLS

melting point [°C]	IC50 (h-NK3 receptor) [nM]	IC50 (h-NK2 receptor) [nM]	IC50 (h-NK1 receptor) [nM]	SMILES
135	–	–	–	O=C(c1cc(C(F)(F)F)cc(C(F)(F)F)c1)N1CCC(N2CCN(C3CCN(Cc4nc5ccccc5[nH]4)CC3)CC2)CC1Cc1ccccc1 (stereo not shown) [Compound 7]
–	398	398	7.94	COc1cc(N)c(Cl)cc1C(=O)N1CCC(N2CCN([C@H]3CCN(C(=O)c4cc(C(F)(F)F)cc(C(F)(F)F)c4)[C@H](Cc4ccccc4)C3)CC2)CC1 [Compound 64]
